Data as given in patent US20140294849A1, “COMPOSITIONS AND USES” (GLAXOSMITHKLINE BIOLOGICALS SA, priority 2011, published 2014).
No end group written: not given here.

Key:
working memory = test: T-water maze in TASTPM mice; format: in vivo; conditions: Example 25; 12 weekly i.m. injections; vs PBS
Description: Mice were tested during the “light on” phase of the day. Behavioral experimenter was blinded to the genetic and treatment status of animals. To assess hippocampal-dependent spatial learning and memory, mice were trained in the T-water maze task. In this paradigm, we evaluate the mouse's ability to remember the spatial location of submerged platform. The T-maze apparatus (length of stem, 64 cm; length of arms, 30 cm; width, 12 cm; height of walls, 16 cm) was made of clear fiberglass and filled with water (23±1° C.) at a height of 12 cm. A platform (11×11 cm) was placed at the end of the target arm and was submerged 1 cm below the surface. The acquisition phase allows to evaluate animals for left-right spatial learning. During the first two trials, platforms were placed on each arms of the maze to test the spontaneous turning preference of the mouse. After these two trials, the least chosen arm was reinforced by the escape platform. […] The number of trials to reach the criterion (five of five correct choices made on consecutive trials) was measured as well as the latency to find the escape platform.
To determine whether a TLR2 agonist will improve the cognitive impairment in TASTPM mice, the Pam3CysLip adjuvant fused to the Aβ1-6 peptide was injected 12 times at weekly basis using the intramuscular route and the memory was assessed using the T-water maze test. […]

TASTPM mice = test: Survival rate of TASTPM mouse model; format: in vivo; conditions: Example 26; weekly injections; followed for 112 days
From the text: The usage of the TLR2 agonist, i.e. Pam3CysLip Aβ1-6 peptide, improves the survival rate of TASTPM mouse model. 23 out of 25 mice survived after weekly injections of Pam3CysLip Aβ1-6 peptide compared to PBS injected animals in which only 13 out 25 TASTPM mice survived (followed for 112 days).

Aβ42 = test: Anti Aβ42 specific immunogenicity in TASTPM mice; format: in vivo; conditions: Example 24; 12 injections of 10 ug, intramuscular
Description: Whole blood is collected from mice and centrifuged on a vacutainer blood collection tube containing gel for serum separation. Serum samples are stored at −80° C. Streptavidin-coated plates (Greiner Bio-One, Germany) are first coated with beta-amyloid (1-42)-Lys(Biotin)-NH2 peptide (Anaspec, Inc.) at 0.5 μg/mL, using 50 mM sodium carbonate buffer, overnight at 4° C. Plates are then washed using a 4 times using PBS/0.05% Tween 20. Super Block (ScyTek laboratories) is added to the plates and incubated at 37° C. for at least one hour. Serum samples and standard (anti Aβ42 antibody (6E10 antibody, Covance, Inc.) are serially diluted in the plates and incubated at 37° C. for 2 hours. After a wash step, diluted peroxidase AffiniPure goat anti-mouse IgG, Fcγ fragment specific (Jackson ImmunoResearch Laboratories Inc.) is added for 1 hour at 37° C. A last wash is performed before adding TMB substrate reagent (BD OptEIA™, BD Biosciences) for 30 min at RT. Immediately, plates are stopped using 2N sulfuric acid, and then read at 450 nm using SpectraMax microplate reader (Molecular Devices, Inc.).
High and specific anti Aβ42 specific immunogenicity is promoted by a TLR2 containing adjuvant fused to the first six amino acid of Aβ in the amyloid deposition mouse model (TASTPM) following 12 injections of 10 ug of the Pam3Cys—SQ EPAAPAAEAT PAAEAP DAEFRH (SEQ ID NO:9) using the intramuscular route.

AD-like neuropathologies = conditions: Schenk D. et al, 1999; cited from earlier work
BV2 microglia cells = test: In vitro phagocytosis of Aβ1-42 in BV2 cells, Western blot; format: cell-based, mouse; conditions: Example 16; 5 μg/mL cytochalasin D
Description: For total Aβ detection, 10-30 μg of cell extracts were separated on a precast 10-20% SDS polyacrylamide Tris-Tricine gel (Bio-Rad, Canada). Separated proteins were then transferred onto polyvinylidene fluoride (PVDF) membranes (PerkinElmer, Canada). Membrane were incubated in DPBS (Gibco, USA) at 90° C. for 10 min. Membrane were then incubated for 1 hour in blocking solution, which consist in TBS-T (50 mM Tris-HCl pH 8.0; 150 mM NaCl; 0.05% Tween 20) supplemented with 1% BSA (Sigma, Canada) and 5% non-fat dry milk, and probed for 16 hours at 4° C. with a mouse anti-amyloid beta protein monoclonal antibody clone 6E10 (Covance, USA) diluted to 1:1000 in TBS-T supplemented with 5% BSA and 0.02% sodium azide. Membranes were washed once for 15 min and three times for 5 min in TBS-T at room temperature. […] Films were digitalized using a HP Scanjet 4370 (HP) and signal intensity was measured using ImageJ (version 1.44p, NIH).
Aβ specific antibodies stimulate the uptake of soluble Aβ1-42 toxic peptides in an actin polymerization-dependent mechanism. […] Cells were incubated for the indicated period of time, resuspended by trypsinization, collected, solubilised in lysis buffer and further analyzed by immunoblotting. […]

Molecule: Pam3Cys—SQ EPAAPAAEAT PAAEAPDAEFRH (Pam3Cys-SQEPAAPAAEATPAAEAPDAEFRH) [Pam3CysLip Aβ1-6]
- right-left discrimination tests, T-water maze (working memory): trend of improvement
- mice survived (TASTPM mice): 23 out of 25
- Aβ42 specific immunogenicity (Aβ42): High Aβ42 specific Immunogenicity

Molecule: synthetic human Aβ1-42: synthetic human Aβ1-42 used to immunize PDAPP mice
- AD-like neuropathologies (AD-like neuropathologies): reduce the extent and progression of AD-like neuropathologies

Molecule: C=C1[C@@H](C)[C@H]2[C@H](Cc3ccccc3)NC(=O)[C@]23[C@H](OC(C)=O)/C=C/[C@@](C)(O)C(=O)[C@@H](C)C/C=C/[C@H]3[C@@H]1O [cytochalasin D]
- effect on 2E7-increased cellular uptake of Aβ1-42 (BV2 microglia cells): inhibited
